Measurements published in patent US10815230B2, “Casein kinase 1 delta inhibitor” (ELECTROPHORETICS LIMITED, priority 2015, dated 2020).

Key:
[1] = molecular target: CK1a1 (Homo sapiens, UniProt P48729); assay: Kinase selectivity, % remaining activity; format: biochemical; settings: CK1a1, 10 μM compound, 10 μM ATP, duplicate; for remaining activity at 10 µM: read-out: % of remaining activity (relative to DMSO)
Protocol: (§1) Compounds were tested in single dose duplicate mode at a concentration of 10 μM (in DMSO) and reactions were carried out at 10 μM ATP, Table 3 reports the % of remaining activity (relative to DMSO).

[2] = molecular target: CK1e (Homo sapiens, UniProt P49674); assay: Kinase selectivity, % remaining activity; format: biochemical; settings: 10 μM compound, 10 μM ATP, duplicate; for remaining activity at 10 µM: read-out: % of remaining activity (relative to DMSO)
CK1e, sequence (P49674 whole entry): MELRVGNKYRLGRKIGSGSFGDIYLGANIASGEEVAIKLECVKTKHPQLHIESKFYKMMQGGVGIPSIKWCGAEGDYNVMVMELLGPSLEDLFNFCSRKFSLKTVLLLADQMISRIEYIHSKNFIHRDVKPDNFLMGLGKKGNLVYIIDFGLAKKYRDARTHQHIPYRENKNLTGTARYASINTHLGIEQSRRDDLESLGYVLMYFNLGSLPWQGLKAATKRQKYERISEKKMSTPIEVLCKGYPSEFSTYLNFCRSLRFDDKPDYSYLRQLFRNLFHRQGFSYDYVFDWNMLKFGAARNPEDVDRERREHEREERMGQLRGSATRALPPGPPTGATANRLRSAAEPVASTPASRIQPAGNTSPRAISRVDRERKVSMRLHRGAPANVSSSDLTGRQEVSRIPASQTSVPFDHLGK
Protocol: (§2) A two-tier strategy to determine the selectivity of compound A was applied: first, the compound was tested at a single concentration (in duplicate) to determine the %-remaining activity of the target kinase. Subsequently, the IC50 of compound A and comparative compounds for casein kinase 1 delta were determined.
as §1

[3] = molecular target: CK1g1 (Homo sapiens, UniProt Q9HCP0); assay: Kinase selectivity, % remaining activity; format: biochemical; settings: 10 μM compound, 10 μM ATP, duplicate; for remaining activity at 10 µM: read-out: % of remaining activity (relative to DMSO)
Protocol: as §2, §1

[4] = molecular target: CK1g2 (Homo sapiens, UniProt P78368); assay: Kinase selectivity, % remaining activity; format: biochemical; settings: 10 μM compound, 10 μM ATP, duplicate; for remaining activity at 10 µM: read-out: % of remaining activity (relative to DMSO)
Protocol: as §2, §1

[5] = molecular target: EGFR (Homo sapiens, UniProt P00533); assay: Kinase selectivity, % remaining activity; format: biochemical; settings: 10 μM compound, 10 μM ATP, duplicate; for remaining activity at 10 µM: read-out: % of remaining activity (relative to DMSO)
EGFR, sequence (P00533 25-1210): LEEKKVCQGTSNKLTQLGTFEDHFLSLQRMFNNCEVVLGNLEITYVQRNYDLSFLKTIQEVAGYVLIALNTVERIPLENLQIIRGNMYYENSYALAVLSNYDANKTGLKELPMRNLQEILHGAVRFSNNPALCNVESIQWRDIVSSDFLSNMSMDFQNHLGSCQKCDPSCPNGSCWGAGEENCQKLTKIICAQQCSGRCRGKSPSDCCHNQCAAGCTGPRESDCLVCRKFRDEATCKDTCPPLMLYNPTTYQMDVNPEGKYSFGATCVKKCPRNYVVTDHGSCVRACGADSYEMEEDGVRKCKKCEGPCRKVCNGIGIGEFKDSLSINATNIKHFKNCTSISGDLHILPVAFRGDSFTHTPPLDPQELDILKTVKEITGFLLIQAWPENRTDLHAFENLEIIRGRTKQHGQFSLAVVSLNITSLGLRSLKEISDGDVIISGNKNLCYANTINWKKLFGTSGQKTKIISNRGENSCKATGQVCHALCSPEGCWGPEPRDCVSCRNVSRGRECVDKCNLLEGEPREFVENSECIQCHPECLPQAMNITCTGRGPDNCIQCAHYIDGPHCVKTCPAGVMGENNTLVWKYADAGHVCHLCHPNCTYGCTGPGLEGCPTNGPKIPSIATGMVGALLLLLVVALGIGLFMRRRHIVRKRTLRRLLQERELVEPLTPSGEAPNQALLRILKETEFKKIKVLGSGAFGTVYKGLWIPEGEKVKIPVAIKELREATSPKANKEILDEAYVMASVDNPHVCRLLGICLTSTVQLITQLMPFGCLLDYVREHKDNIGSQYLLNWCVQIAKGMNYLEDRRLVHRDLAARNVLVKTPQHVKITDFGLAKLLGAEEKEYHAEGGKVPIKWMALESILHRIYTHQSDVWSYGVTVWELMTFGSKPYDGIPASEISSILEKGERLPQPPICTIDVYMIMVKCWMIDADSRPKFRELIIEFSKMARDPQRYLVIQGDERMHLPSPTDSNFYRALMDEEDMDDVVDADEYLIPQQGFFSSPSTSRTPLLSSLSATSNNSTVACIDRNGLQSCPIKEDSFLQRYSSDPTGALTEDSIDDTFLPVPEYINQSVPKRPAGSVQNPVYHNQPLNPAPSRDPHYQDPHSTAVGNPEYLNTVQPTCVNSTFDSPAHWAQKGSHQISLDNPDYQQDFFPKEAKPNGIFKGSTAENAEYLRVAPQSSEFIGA
Protocol: as §2, §1

[6] = molecular target: EPHA2 (Homo sapiens, UniProt P29317); assay: Kinase selectivity, % remaining activity; format: biochemical; settings: 10 μM compound, 10 μM ATP, duplicate; for remaining activity at 10 µM: read-out: % of remaining activity (relative to DMSO)
EPHA2, sequence (P29317 24-976): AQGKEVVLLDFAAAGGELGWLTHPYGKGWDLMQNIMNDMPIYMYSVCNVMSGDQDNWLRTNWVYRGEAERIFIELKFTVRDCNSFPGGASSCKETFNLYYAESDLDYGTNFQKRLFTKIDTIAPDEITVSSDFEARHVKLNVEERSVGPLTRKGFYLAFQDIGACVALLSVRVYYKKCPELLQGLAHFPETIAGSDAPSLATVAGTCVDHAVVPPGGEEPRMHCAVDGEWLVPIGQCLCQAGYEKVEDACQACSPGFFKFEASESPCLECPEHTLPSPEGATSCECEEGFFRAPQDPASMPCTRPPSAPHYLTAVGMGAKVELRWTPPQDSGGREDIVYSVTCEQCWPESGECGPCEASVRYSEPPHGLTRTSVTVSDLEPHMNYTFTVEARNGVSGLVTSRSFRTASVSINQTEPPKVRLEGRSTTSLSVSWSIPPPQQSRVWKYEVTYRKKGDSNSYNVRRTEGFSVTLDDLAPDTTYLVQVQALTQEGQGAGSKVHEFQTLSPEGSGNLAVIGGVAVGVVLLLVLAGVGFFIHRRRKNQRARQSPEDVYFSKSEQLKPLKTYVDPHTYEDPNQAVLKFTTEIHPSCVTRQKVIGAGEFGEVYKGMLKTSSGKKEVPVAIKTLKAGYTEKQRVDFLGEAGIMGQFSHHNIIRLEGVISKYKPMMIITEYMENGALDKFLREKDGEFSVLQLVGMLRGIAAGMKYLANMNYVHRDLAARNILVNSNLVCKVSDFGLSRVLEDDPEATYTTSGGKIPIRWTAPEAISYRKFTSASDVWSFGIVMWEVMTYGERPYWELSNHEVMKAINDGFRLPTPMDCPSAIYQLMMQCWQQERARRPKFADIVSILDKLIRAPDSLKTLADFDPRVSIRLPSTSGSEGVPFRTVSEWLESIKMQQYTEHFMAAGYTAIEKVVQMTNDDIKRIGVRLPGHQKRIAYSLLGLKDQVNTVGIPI
Protocol: as §2, §1

[7] = molecular target: JNK2 (Homo sapiens, UniProt P45984); assay: Kinase selectivity, % remaining activity; format: biochemical; settings: 10 μM compound, 10 μM ATP, duplicate; for remaining activity at 10 µM: read-out: % of remaining activity (relative to DMSO)
JNK2, sequence (P45984 whole entry): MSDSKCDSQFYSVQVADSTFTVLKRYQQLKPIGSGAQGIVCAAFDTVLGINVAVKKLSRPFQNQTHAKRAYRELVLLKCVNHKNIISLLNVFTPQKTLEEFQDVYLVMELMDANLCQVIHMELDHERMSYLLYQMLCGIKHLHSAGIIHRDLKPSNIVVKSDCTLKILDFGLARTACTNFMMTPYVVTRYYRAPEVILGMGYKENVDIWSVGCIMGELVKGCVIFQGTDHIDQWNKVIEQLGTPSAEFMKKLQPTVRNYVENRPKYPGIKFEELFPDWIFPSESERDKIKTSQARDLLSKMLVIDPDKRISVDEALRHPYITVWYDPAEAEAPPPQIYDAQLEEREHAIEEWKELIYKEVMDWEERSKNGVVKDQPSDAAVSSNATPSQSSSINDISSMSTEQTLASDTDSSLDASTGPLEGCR
Protocol: as §2, §1

[8] = molecular target: KDR/VEGFR2 (Homo sapiens, UniProt P35968); assay: Kinase selectivity, % remaining activity; format: biochemical; settings: 10 μM compound, 10 μM ATP, duplicate; for remaining activity at 10 µM: read-out: % of remaining activity (relative to DMSO)
Protocol: as §2, §1

[9] = molecular target: LCK (Homo sapiens, UniProt P06239); assay: Kinase selectivity, % remaining activity; format: biochemical; settings: 10 μM compound, 10 μM ATP, duplicate; for remaining activity at 10 µM: read-out: % of remaining activity (relative to DMSO)
LCK, sequence (P06239 whole entry): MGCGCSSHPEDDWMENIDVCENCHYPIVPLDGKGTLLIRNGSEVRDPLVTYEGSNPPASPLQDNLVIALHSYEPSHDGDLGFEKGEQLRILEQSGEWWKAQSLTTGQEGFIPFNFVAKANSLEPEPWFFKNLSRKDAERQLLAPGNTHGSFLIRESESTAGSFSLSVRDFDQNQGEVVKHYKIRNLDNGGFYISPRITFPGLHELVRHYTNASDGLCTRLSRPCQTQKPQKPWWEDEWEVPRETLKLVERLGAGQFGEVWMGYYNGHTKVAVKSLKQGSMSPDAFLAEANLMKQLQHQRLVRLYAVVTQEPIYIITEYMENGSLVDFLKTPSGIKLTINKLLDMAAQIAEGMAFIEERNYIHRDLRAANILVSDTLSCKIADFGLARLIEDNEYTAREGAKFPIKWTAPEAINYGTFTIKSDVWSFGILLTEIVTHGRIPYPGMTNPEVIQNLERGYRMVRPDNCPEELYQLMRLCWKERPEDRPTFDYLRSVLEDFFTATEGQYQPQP
Protocol: as §2, §1

[10] = molecular target: T1, PDK1/PDPK1 (Homo sapiens, UniProt O15530); assay: Kinase selectivity, % remaining activity; format: biochemical; settings: 10 μM compound, 10 μM ATP, duplicate; for remaining activity at 10 µM: read-out: % of remaining activity (relative to DMSO)
T1 sequence (O15530 1-556): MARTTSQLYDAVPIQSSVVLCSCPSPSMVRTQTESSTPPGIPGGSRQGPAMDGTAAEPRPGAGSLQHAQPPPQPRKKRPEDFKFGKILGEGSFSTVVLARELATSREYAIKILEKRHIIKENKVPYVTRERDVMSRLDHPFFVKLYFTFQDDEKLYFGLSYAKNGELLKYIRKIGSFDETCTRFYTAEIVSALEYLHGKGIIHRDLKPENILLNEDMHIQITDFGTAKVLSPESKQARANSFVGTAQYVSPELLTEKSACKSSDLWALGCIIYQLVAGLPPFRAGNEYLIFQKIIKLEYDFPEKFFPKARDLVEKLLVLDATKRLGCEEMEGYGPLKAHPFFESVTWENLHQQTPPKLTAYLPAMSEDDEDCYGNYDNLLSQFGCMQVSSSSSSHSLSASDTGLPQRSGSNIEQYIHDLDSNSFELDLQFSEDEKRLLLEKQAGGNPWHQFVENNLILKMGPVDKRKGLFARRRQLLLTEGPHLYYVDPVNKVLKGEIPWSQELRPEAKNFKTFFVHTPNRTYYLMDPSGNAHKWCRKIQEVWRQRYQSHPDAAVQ
Protocol: as §2, §1

[11] = molecular target: PKA (Homo sapiens, UniProt P17612); assay: Kinase selectivity, % remaining activity; format: biochemical; settings: 10 μM compound, 10 μM ATP, duplicate; for remaining activity at 10 µM: read-out: % of remaining activity (relative to DMSO)
Protocol: as §2, §1

[12] = molecular target: PKCb2 (Homo sapiens, UniProt P05771); assay: Kinase selectivity, % remaining activity; format: biochemical; settings: 10 μM compound, 10 μM ATP, duplicate; for remaining activity at 10 µM: read-out: % of remaining activity (relative to DMSO)
Protocol: as §2, §1

[13] = molecular target: RIPK2 (Homo sapiens, UniProt O43353); assay: Kinase selectivity, % remaining activity; format: biochemical; settings: 10 μM compound, 10 μM ATP, duplicate; for remaining activity at 10 µM: read-out: % of remaining activity (relative to DMSO)
RIPK2, sequence (O43353 whole entry): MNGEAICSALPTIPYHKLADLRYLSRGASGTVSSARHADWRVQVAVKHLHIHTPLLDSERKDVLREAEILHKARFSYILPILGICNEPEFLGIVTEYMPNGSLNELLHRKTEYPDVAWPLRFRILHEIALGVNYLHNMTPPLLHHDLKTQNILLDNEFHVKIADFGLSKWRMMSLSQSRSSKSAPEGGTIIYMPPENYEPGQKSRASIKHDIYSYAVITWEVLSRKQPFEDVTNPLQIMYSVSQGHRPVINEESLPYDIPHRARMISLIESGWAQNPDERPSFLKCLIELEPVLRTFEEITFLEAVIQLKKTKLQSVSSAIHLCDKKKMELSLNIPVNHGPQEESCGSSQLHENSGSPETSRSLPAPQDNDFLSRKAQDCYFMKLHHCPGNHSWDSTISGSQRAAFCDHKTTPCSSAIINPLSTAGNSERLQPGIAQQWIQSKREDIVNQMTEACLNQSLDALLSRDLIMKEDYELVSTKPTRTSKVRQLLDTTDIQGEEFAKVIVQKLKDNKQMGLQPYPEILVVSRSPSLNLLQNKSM
Protocol: as §2, §1

[14] = molecular target: YES/YES1 (Homo sapiens, UniProt P07947); assay: Kinase selectivity, % remaining activity; format: biochemical; settings: 10 μM compound, 10 μM ATP, duplicate; for remaining activity at 10 µM: read-out: % of remaining activity (relative to DMSO)
YES/YES1, sequence (P07947 whole entry): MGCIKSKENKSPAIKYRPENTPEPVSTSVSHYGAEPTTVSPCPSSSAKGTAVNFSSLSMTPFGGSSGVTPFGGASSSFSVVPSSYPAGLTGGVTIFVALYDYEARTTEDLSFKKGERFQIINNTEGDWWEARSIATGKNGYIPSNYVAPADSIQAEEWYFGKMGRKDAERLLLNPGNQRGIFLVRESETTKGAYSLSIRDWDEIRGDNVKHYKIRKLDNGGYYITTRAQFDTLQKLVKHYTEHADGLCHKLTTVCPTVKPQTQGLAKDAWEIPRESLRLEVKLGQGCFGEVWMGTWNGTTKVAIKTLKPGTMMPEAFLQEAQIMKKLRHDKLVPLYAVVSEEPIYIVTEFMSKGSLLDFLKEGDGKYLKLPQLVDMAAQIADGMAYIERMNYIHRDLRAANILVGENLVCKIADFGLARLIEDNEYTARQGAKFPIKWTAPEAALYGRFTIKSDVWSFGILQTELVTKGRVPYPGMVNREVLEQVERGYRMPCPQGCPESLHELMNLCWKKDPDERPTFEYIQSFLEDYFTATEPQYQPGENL
Protocol: as §2, §1

[15] = molecular target: c-Src (Homo sapiens, UniProt P12931); assay: Kinase selectivity, % remaining activity; format: biochemical; settings: 10 μM compound, 10 μM ATP, duplicate
Protocol: as §2, §1

[16] = molecular target: CK1d (casein kinase 1 delta) (Homo sapiens, UniProt P48730); assay: Kinase selectivity, % remaining activity and IC50; format: biochemical; settings: 10 μM ATP; for % of remaining activity (relative to DMSO) / remaining activity at 10 µM: CK1d, 10 μM compound, duplicate; for remaining activity at 10 µM: read-out: % of remaining activity (relative to DMSO); for IC50: casein kinase 1 delta, 10-dose, 3 fold serial dilution
Protocol: as §2, §1
Control compound GW5074 (Tocris®) was tested starting at 20 μM. Reactions were carried out at 10 μM ATP.

[17] = system: TMHT (Thy-1 Mutated Human Tau) mouse; assay: In-vivo efficacy, Morris Water Maze in tau transgenic mice; settings: 30 mg/kg orally for 8 weeks
From the text: Various compounds of different classes (among them also antibody treatments) were positively tested for their efficacy in the TMHT model. Published examples are the γ-secretase modulator CHF5074 (Lanzilotta A, et al. The γ-secretase modulator CHF5074 reduces the accumulation of native hyperphosphoxylated tau in a transgenic mouse model of Alzheimer's disease. J Mol Neurosci. 45(1):22--33 (2010)), sodium selenate (Corcoran N M et al. Sodium selenate specifically activates PP2A phosphatase, dephosphorylates tau and reverses memory deficits in an Alzheimer's disease model. J Clin Neurosci. 17(8):1025-33 (2010)) and grape-seed polyphenol extract (Wang J et al. Grape derived polyphenols attenuate tau neuropathology in a mouse model of Alzheimer's disease. […] The effects of the compounds on learning in the Morris Mater Maze (MWM) were evaluated. Blood (plasma) and brain samples were collected after sacrification. Samples collected at sacrifice were plasma, left cortex, left hippocampus, right cortex, right hippocampus, remainder of left brain hemisphere, remainder of right brain hemisphere. In total 48 animals were used and allocated to 4 treatment groups. The start position of the mouse and the position of the platform (FIG. 1) in the different trials of the MWM were as indicated in Table 9: […] A descriptive statistical analysis was performed on all evaluated parameters. All data were represented as mean ±standard error of mean (SEM). MWM learning curve data of three trials per day were averaged. Over a period of 4 days, the ability to find a hidden platform using visual cues was measured performing 3 trials a day. By comparison of the learning curves, the cognitive abilities of the different treatment groups and possible drug effects were evaluated.

CK1a1, sequence (P48729 whole entry): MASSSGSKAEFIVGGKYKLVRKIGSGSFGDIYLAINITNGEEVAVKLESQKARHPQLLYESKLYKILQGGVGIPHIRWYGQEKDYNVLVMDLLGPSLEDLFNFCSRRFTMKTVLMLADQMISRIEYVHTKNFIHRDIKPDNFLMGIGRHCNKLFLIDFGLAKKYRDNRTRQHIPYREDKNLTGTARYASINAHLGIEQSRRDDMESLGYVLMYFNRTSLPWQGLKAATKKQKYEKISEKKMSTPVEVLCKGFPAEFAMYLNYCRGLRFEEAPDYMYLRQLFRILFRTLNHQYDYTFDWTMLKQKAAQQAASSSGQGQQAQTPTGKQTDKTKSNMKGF

COc1ccc(C=C2N=C(c3cccs3)OC2=O)cc1 [Comparative Compound 315, 4-((4-methoxyphenyl)methylene)-2-(2-thienyl)-5(4H)-oxalone]
% of remaining activity (relative to DMSO) ([1]; listed as Cmp 315): 44.41%
remaining activity at 10 µM [1]: 33.6%
% of remaining activity (relative to DMSO) ([2]; listed as Cmp 315): 6.51%
remaining activity at 10 µM [2]: 5.45%
% of remaining activity (relative to DMSO) ([3]; listed as Cmp 315): 73.02%
remaining activity at 10 µM [3]: 71.9%
% of remaining activity (relative to DMSO) ([4]; listed as Cmp 315): 50.52%
remaining activity at 10 µM [4]: 47.3%
% of remaining activity (relative to DMSO) ([5]; listed as Cmp 315): 117.99%
remaining activity at 10 µM [5]: 111%
% of remaining activity (relative to DMSO) ([6]; listed as Cmp 315): 96.60%
remaining activity at 10 µM [6]: 99%
% of remaining activity (relative to DMSO) ([7]; listed as Cmp 315): 98.70%
remaining activity at 10 µM [7]: 99.4%
% of remaining activity (relative to DMSO) ([8]; listed as Cmp 315): 107.86%
remaining activity at 10 µM [8]: 104%
% of remaining activity (relative to DMSO) ([9]; listed as Cmp 315): 97.71%
remaining activity at 10 µM [9]: 94.9%
% of remaining activity (relative to DMSO) ([10]; listed as Cmp 315): 103.28%
remaining activity at 10 µM [10]: 105%
% of remaining activity (relative to DMSO) ([11]; listed as Cmp 315): 112.40%
remaining activity at 10 µM [11]: 116%
% of remaining activity (relative to DMSO) ([12]; listed as Cmp 315): 110.56%
remaining activity at 10 µM [12]: 112%
% of remaining activity (relative to DMSO) ([13]; listed as Cmp 315): 90.19%
remaining activity at 10 µM [13]: 93.4%
% of remaining activity (relative to DMSO) ([14]; listed as Cmp 315): 99.08%
remaining activity at 10 µM [14]: 99%
% of remaining activity (relative to DMSO) ([15]; listed as Cmp 315): 101.24%
remaining activity at 10 µM ([15]; read-out: % of remaining activity (relative to DMSO)): 104%
% of remaining activity (relative to DMSO) ([16]; listed as Cmp 315): 1.38%
remaining activity at 10 µM [16]: 2.23%
IC50 [16]: 435 nM

Nc1ncc(-c2nc3ccccc3o2)c(-c2ccncc2)n1 [Comparative Compound 324, 5-(1,3-benzoxazol-2-yl)-4-(pyridine-4-yl)pyrimidin-2-amine]
Escape latency (time to reach the target), Mean ± SEM, Day 1 ([17]; Day 1): 54.9 ± 2.66 s
Path length to reach the target, Mean ± SEM, Day 1 ([17]; Day 1): 8.81 ± 0.55 meter
Escape latency (time to reach the target), Mean ± SEM, Day 2 ([17]; Day 2): 46.6 ± 3.82 s
Path length to reach the target, Mean ± SEM, Day 2 ([17]; Day 2): 6.77 ± 0.64 meter
Escape latency (time to reach the target), Mean ± SEM, Day 3 ([17]; Day 3): 39.8 ± 3.95 s
Path length to reach the target, Mean ± SEM, Day 3 ([17]; Day 3): 5.25 ± 0.58 meter
Escape latency (time to reach the target), Mean ± SEM, Day 4 ([17]; Day 4): 36.9 ± 3.87 s
Path length to reach the target, Mean ± SEM, Day 4 ([17]; Day 4): 5.17 ± 0.62 meter
% of remaining activity (relative to DMSO) ([1]; listed as Cmp 324): 58.48%
remaining activity at 10 µM [1]: 65.7%
% of remaining activity (relative to DMSO) ([2]; listed as Cmp 324): 24.86%
remaining activity at 10 µM [2]: 28.2%
% of remaining activity (relative to DMSO) ([3]; listed as Cmp 324): 92.69%
remaining activity at 10 µM [3]: 99%
% of remaining activity (relative to DMSO) ([4]; listed as Cmp 324): 58.69%
remaining activity at 10 µM [4]: 58%
% of remaining activity (relative to DMSO) ([5]; listed as Cmp 324): 79.83%
remaining activity at 10 µM [5]: 83.8%
% of remaining activity (relative to DMSO) ([6]; listed as Cmp 324): 105.62%
remaining activity at 10 µM [6]: 98.7%
% of remaining activity (relative to DMSO) ([7]; listed as Cmp 324): 91.75%
remaining activity at 10 µM [7]: 95.1%
% of remaining activity (relative to DMSO) ([8]; listed as Cmp 324): 100.01%
remaining activity at 10 µM [8]: 85.1%
% of remaining activity (relative to DMSO) ([9]; listed as Cmp 324): 95.46%
remaining activity at 10 µM [9]: 102%
% of remaining activity (relative to DMSO) ([10]; listed as Cmp 324): 104.88%
remaining activity at 10 µM [10]: 105%
% of remaining activity (relative to DMSO) ([11]; listed as Cmp 324): 90.27%
remaining activity at 10 µM [11]: 90.8%
% of remaining activity (relative to DMSO) ([12]; listed as Cmp 324): 103.51%
remaining activity at 10 µM [12]: 101%
% of remaining activity (relative to DMSO) ([13]; listed as Cmp 324): 92.78%
remaining activity at 10 µM [13]: 92.2%
% of remaining activity (relative to DMSO) ([14]; listed as Cmp 324): 95.22%
remaining activity at 10 µM [14]: 108%
% of remaining activity (relative to DMSO) ([16]; listed as Cmp 324): 11.87%
remaining activity at 10 µM [16]: 13.3%
IC50 [16]: 483 nM
